Results published in patent US20250313563A1, “GLYCOGEN SYNTHASE KINASE 3 INHIBITORS AND USES THEREOF” (The Broad Institute, Inc., priority 2022, published 2025).
Read-outs that look alike come from different tables or passages of the source.

Tests used:
[1] = molecular target: GSK3α (GST-full length GSK3α) (Homo sapiens (Human), UniProt P49840); test: GSK3α TR-FRET kinase assay; assay type: biochemical
Method in brief: (§1)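 Full-length GST-tagged human enzyme (1 nM) is exposed to test compound for 30 min before substrates are added. Phosphorylation of a primed biotinylated glycogen synthase peptide proceeds 100 min at room temperature at low ATP (4 μM α; 2 μM β) or high ATP (1 mM). Product is quantified by TR-FRET.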

[2] = molecular target: GSK3b (GST-full length GSK3b) (Homo sapiens (Human), UniProt P49841); test: GSK3b TR-FRET kinase assay; assay type: biochemical
Method in brief: as §1

[3] = 1 nM GSK3α, 4 μM ATP, 30 minute preincubation, Table 16, read-out: GSK3-A TR-FRET BIOCHEMICAL (TR-FRET), IC50
[4] = 1 nM GSK3b, 2 μM ATP, 30 minute preincubation, Table 16, read-out: GSK3-B TR-FRET BIOCHEMICAL (TR-FRET), IC50
[5] = 1 nM GSK3α, 4 μM ATP, 30 minute preincubation, Table 16, read-out: GSK3-A TR-FRET BIOCHEMICAL (TR-FRET)
[6] = 1 nM GSK3b, 2 μM ATP, 30 minute preincubation, Table 16, read-out: GSK3-B TR-FRET BIOCHEMICAL (TR-FRET)
[7] = 1 nM GSK3α, 4 μM ATP, 30 minute preincubation, geometric mean, read-out: GSK3-A TR-FRET BIOCHEMICAL (TR-FRET), GMean, IC50
[8] = 1 nM GSK3b, 2 μM ATP, 30 minute preincubation, geometric mean, read-out: GSK3-B TR-FRET BIOCHEMICAL (TR-FRET), GMean, IC50
[9] = read-out: GSK3-A (TR-FRET 1 mM ATP), GMean, IC50, 1 mM ATP, geometric mean
[10] = read-out: GSK3-B (TR-FRET 1 mM ATP), GMean, IC50, 1 mM ATP, geometric mean
[11] = 1 nM GSK3α, 4 μM ATP, 30 minute preincubation, read-out: GSK3-A TR-FRET BIOCHEMICAL (TR-FRET), IC50
[12] = 1 nM GSK3b, 2 μM ATP, 30 minute preincubation, read-out: GSK3-B TR-FRET BIOCHEMICAL (TR-FRET), IC50
[13] = GSK3-A (TR-FRET 1 mM ATP), GMean, IC50, 1 mM ATP, geometric mean
[14] = GSK3-B (TR-FRET 1 mM ATP), GMean, IC50, 1 mM ATP, geometric mean

Sequence of GSK3b (GST-full length GSK3b) (P49841 whole entry): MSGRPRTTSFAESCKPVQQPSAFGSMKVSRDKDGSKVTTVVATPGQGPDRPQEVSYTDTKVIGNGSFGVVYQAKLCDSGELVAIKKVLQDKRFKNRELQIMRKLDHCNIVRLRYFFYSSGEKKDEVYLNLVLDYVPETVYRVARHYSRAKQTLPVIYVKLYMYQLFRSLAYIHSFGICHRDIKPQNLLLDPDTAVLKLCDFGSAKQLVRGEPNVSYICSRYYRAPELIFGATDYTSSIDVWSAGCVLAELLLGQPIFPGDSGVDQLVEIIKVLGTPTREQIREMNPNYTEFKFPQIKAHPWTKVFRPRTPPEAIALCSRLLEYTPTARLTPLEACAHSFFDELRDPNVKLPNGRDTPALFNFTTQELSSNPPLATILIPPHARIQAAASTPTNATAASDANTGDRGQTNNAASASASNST
Sequence of GSK3α (GST-full length GSK3α) (P49840 whole entry): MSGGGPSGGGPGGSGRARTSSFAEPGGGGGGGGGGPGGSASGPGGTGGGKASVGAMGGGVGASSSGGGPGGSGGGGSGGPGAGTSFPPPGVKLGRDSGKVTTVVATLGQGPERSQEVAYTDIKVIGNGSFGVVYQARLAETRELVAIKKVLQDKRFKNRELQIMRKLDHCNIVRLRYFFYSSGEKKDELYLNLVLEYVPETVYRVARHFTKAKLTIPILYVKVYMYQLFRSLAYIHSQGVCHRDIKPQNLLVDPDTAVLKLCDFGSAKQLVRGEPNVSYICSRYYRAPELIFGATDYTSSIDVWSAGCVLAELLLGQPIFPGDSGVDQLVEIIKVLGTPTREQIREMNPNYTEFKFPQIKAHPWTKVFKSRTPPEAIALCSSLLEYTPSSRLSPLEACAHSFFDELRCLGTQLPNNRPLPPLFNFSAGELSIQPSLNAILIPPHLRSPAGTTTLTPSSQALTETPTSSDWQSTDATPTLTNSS

CCC1(c2cccc(-c3ccnc(C(F)(F)F)c3)c2)C2=C(CC(C)(C)CC2=O)Nc2n[nH]c(C)c21 (stereo not shown) [Compound 913020]
IC50 [1, 3]: ≤ 100 nM | IC50 [2, 4]: ≤ 100 nM

CC1(C)CC(=O)C2=C(C1)Nc1n[nH]cc1C21CCN(S(=O)(=O)c2cnn3c2OCCC3)CC1 [Compound 947483]
IC50 [1, 5]: ≤ 100 nM | IC50 [2, 6]: ≤ 100 nM

CCC1(c2cccc(-c3cnn(C)c3)c2)C2=C(CC(C)CC2=O)Nc2n[nH]cc21 (stereo not shown) [Compound 823726]
IC50 [1, 7]: > 5000 nM | IC50 [2, 8]: > 5000 nM

COc1cncc(F)c1-c1cccc([C@@]2(C)C3=C(CC(C)(C)CC3=O)Nc3n[nH]c(CC(C)(C)C)c32)c1 [Compound 108956]
IC50 [1, 9]: > 5000 nM | IC50 [2, 10]: 1000 to 5000 nM

CC1CC(C(=O)N2CC3(C2)CC2(CO3)C3=C(CC(C)(C)CC3=O)Nc3n[nH]cc32)C1 (stereo not shown) [Compound 947732]
IC50 [1, 11]: 100 to 1000 nM | IC50 [2, 12]: 1000 to 5000 nM

CC1(C)CC(=O)C2=C(C1)Nc1n[nH]c(C(F)(F)F)c1C21CCCOc2ccccc21 (stereo not shown) [Compound 790632]
IC50 [1, 7]: > 5000 nM | IC50 [2, 8]: > 5000 nM

CCC1(c2cccc(-c3ccncc3)c2)C2=C(Nc3n[nH]cc31)C(F)C(C)(C)CC2=O (stereo not shown) [Compound 959342]
IC50 [1, 5]: 1000 to 5000 nM | IC50 [2, 6]: > 5000 nM

CCC1(c2cccc(-c3ccncc3C)c2)C2=C(CC(C)(COC)NC2=O)Nc2n[nH]cc21 (mixture of isomers) [Compound 948127]
IC50 [1, 7]: 100 to 1000 nM | IC50 [2, 8]: > 5000 nM

CCC1(c2cccc(-c3cnn4c3CCCC4)c2)C2=C(CC(C)(C)CC2=O)Nc2n[nH]c(C)c21 (stereo not shown) [Compound 913036]
IC50 [1, 3]: ≤ 100 nM | IC50 [1, 9]: ≤ 100 nM | IC50 [2, 4]: ≤ 100 nM | IC50 [2, 10]: 100 to 1000 nM

CN1CCCC2(CC1)C1=C(CC(C)(C)CC1=O)Nc1n[nH]cc12 (stereo not shown) [Compound 893313]
IC50 [1, 3]: > 5000 nM | IC50 [2, 4]: > 5000 nM

CC[C@]1(c2cccc(-c3ccncc3C)c2)C2=C(CC(C)(C)CC2=O)Nc2n[nH]cc21 [Compound 913047]
IC50 [1, 3]: ≤ 100 nM | IC50 [1, 9]: ≤ 100 nM | IC50 [2, 4]: ≤ 100 nM | IC50 [2, 10]: 100 to 1000 nM

CCCC(=O)N1CC2(C1)CC1(CO2)C2=C(CC(C)(C)CC2=O)Nc2n[nH]cc21 (stereo not shown) [Compound 947300]
IC50 [1, 11]: ≤ 100 nM | IC50 [2, 12]: ≤ 100 nM

CC[C@@]1(c2cccc(C(F)(F)F)c2)C2=C(CCN(CCOC)C2=O)Nc2n[nH]cc21 [Compound 949599]
IC50 [1, 3]: 100 to 1000 nM | IC50 [2, 4]: 100 to 1000 nM

CN1CCC2(C1)C1=C(CC(C)(C)CC1=O)Nc1n[nH]cc12 (stereo not shown) [Compound 841867]
IC50 [1, 3]: > 5000 nM | IC50 [2, 4]: > 5000 nM

CCC1(c2cccc(N3CCOCC3)c2)C2=C(CC(C)(C)CC2=O)Nc2n[nH]c(C(F)(F)F)c21 (stereo not shown) [Compound 816886]
IC50 [1, 7]: 1000 to 5000 nM | IC50 [2, 8]: 1000 to 5000 nM

CCC1(c2cccc(-c3cnc(C)n3C)c2)C2=C(CC(C)(C)CC2=O)Nc2n[nH]cc21 (stereo not shown) [Compound 943531]
IC50 [1, 5]: ≤ 100 nM | IC50 [1, 9]: 100 to 1000 nM | IC50 [2, 6]: 100 to 1000 nM | IC50 [2, 10]: > 5000 nM

CC[C@]1(c2ccccc2)C2=C(CC(C)(C)[C@H](F)C2=O)Nc2n[nH]cc21 [Compound 826767]
IC50 [1, 7]: > 5000 nM | IC50 [2, 8]: > 5000 nM

CCC1(c2cccc(C)c2)C2=C(CC(C)(C)CC2=O)Nc2n[nH]c(C(F)(F)F)c21 (stereo not shown) [Compound 883873]
IC50 [1, 3]: ≤ 100 nM | IC50 [1, 9]: ≤ 100 nM | IC50 [2, 4]: ≤ 100 nM | IC50 [2, 10]: 100 to 1000 nM

CCC1(c2cccc(-c3ccnc(C(F)(F)F)c3)c2)C2=C(CC(C)(C)CC2=O)Nc2n[nH]cc21 (stereo not shown) [Compound 913350]
IC50 [1, 3]: 100 to 1000 nM | IC50 [1, 9]: ≤ 100 nM | IC50 [2, 4]: ≤ 100 nM | IC50 [2, 10]: 100 to 1000 nM

CC[C@@]1(c2cccc(OC)c2)C2=C(CC(C)(C)NC2=O)Nc2n[nH]c(C)c21 [Compound 949337]
IC50 [1, 3]: 100 to 1000 nM | IC50 [2, 4]: 1000 to 5000 nM

CCC1(c2cccc(-c3ccnc(C)c3)c2)C2=C(CC(C)(C)NC2=O)Nc2n[nH]c(Cl)c21 (stereo not shown) [Compound 948998]
IC50 [1, 7]: ≤ 100 nM | IC50 [1, 9]: 100 to 1000 nM | IC50 [2, 8]: ≤ 100 nM | IC50 [2, 10]: 1000 to 5000 nM

CC[C@]1(c2ccccc2)C2=C(C[C@H](c3ccccc3)CC2=O)Nc2n[nH]cc21 [Compound 791262]
IC50 [1, 7]: > 5000 nM | IC50 [2, 8]: > 5000 nM

CC[C@]1(c2cccc(-c3cncn3C)c2)C2=C(CC(C)(C)NC2=O)Nc2n[nH]cc21 [Compound 947820]
IC50 [1, 7]: 100 to 1000 nM | IC50 [2, 8]: 100 to 1000 nM

COC(=O)C1CCC2(CC1)C1=C(CC(C)(C)CC1=O)Nc1n[nH]cc12 (stereo not shown) [Compound 918270]
IC50 [1, 5]: 100 to 1000 nM | IC50 [2, 6]: 100 to 1000 nM

CC1(C)CC(=O)C2=C(C1)Nc1n[nH]cc1[C@@]21CCN(S(=O)(=O)CC2CC2)C1 [Compound 951724]
IC50 [1, 5]: ≤ 100 nM | IC50 [2, 6]: ≤ 100 nM

CC1(C)CC(=O)C2=C(C1)Nc1n[nH]cc1C21CCN(S(=O)(=O)c2cccc(C(F)F)c2)CC1 [Compound 947264]
IC50 [1, 11]: ≤ 100 nM | IC50 [1, 13]: ≤ 100 nM | IC50 [2, 12]: ≤ 100 nM | IC50 [2, 14]: 100 to 1000 nM

CCC1(c2cccc(-c3ccncc3OC3CC3)c2)C2=C(CC(C)(C)NC2=O)Nc2n[nH]cc21 (stereo not shown) [Compound 948656]
IC50 [1, 7]: > 5000 nM | IC50 [2, 8]: > 5000 nM

CC[C@]1(c2cccc(-c3ccncc3C(F)(F)F)c2)C2=C(CC(C)(C)C2=O)Nc2n[nH]cc21 [Compound 952757]
IC50 [1, 3]: 1000 to 5000 nM | IC50 [2, 4]: > 5000 nM

Cn1nccc1-c1cccc2c1CCC[C@]21C2=C(CC(C)(C)CC2=O)Nc2n[nH]cc21 [Compound 945551]
IC50 [1, 5]: ≤ 100 nM | IC50 [2, 6]: ≤ 100 nM

CC1(C)CC(=O)C2=C(C1)Nc1n[nH]cc1C21COC2(CN(C(=O)C(C)(C)F)C2)C1 (stereo not shown) [Compound 947276]
IC50 [1, 11]: ≤ 100 nM | IC50 [2, 12]: ≤ 100 nM

CC[C@@]1(c2ccccc2)C2=C(C[C@](C)(C(F)(F)F)CC2=O)Nc2n[nH]cc21 [Compound 819568]
IC50 [1, 7]: 100 to 1000 nM | IC50 [2, 8]: 100 to 1000 nM

CC1(C)CC(=O)C2=C(C1)Nc1n[nH]cc1C21CCCCCC1 [Compound 883978]
IC50 [1, 5]: 100 to 1000 nM | IC50 [2, 6]: 100 to 1000 nM

CCOc1cccc(S(=O)(=O)N2CCC3(CC2)C2=C(CC(C)(C)CC2=O)Nc2n[nH]cc23)c1 [Compound 947253]
IC50 [1, 5]: ≤ 100 nM | IC50 [1, 13]: 100 to 1000 nM | IC50 [2, 6]: ≤ 100 nM | IC50 [2, 14]: 1000 to 5000 nM

CC1(C)CC(=O)C2=C(C1)Nc1n[nH]cc1C21CCN(S(=O)(=O)c2cnc3ccccc3c2)CC1 [Compound 947462]
IC50 [1, 5]: ≤ 100 nM | IC50 [1, 13]: 100 to 1000 nM | IC50 [2, 6]: ≤ 100 nM | IC50 [2, 14]: 1000 to 5000 nM

CCC1(c2cccc(C(F)(F)C(F)(F)F)c2)C2=C(CC(C)(C)CC2=O)Nc2n[nH]cc21 (stereo not shown) [Compound 949268]
IC50 [1, 5]: 1000 to 5000 nM | IC50 [2, 6]: > 5000 nM

CC(C)S(=O)(=O)N1CCC2(CC1)C1=C(Nc3n[nH]cc32)[C@@H](F)C(C)(C)CC1=O [Compound 951714]
IC50 [1, 11]: ≤ 100 nM | IC50 [1, 13]: 100 to 1000 nM | IC50 [2, 12]: ≤ 100 nM | IC50 [2, 14]: 100 to 1000 nM

CCC1(c2cccc(-c3ccnc(C)c3)c2)C2=C(CC(C)(C)CC2=O)Nc2n[nH]c(C)c21 (stereo not shown) [Compound 883987]
IC50 [1, 3]: ≤ 100 nM | IC50 [2, 4]: 100 to 1000 nM

CCC1(c2cccc(-c3ccncc3)c2)C2=C(CC(C)(C)CC2=O)Nc2n[nH]cc21 (stereo not shown) [Compound 791271]
IC50 [1, 7]: ≤ 100 nM | IC50 [2, 8]: 100 to 1000 nM

CCC1(c2cccc(OCC(F)F)c2)C2=C(CC(C)(C)CC2=O)Nc2n[nH]cc21 (stereo not shown) [Compound 948793]
IC50 [1, 5]: ≤ 100 nM | IC50 [1, 9]: 100 to 1000 nM | IC50 [2, 6]: ≤ 100 nM | IC50 [2, 10]: > 5000 nM
